According to patent US4362667A, “Optical isomers of 4-amino-N-(1-cyclohexyl-3-pyrrolidinyl)-N-methylbenzamide” (A. H. Robins Company, Inc., priority 1981, dated 1982):

Tested on: rat
Assay: Cataleptic effects
Assay type: in vivo
Conditions: fumarate salt, expressed as free base
Source text: The procedure used for determing cataleptic effects of the fumarate salte was based on that of Tedeschi et al., Arch. Int. Pharmacodyn.

CN(C(=O)c1ccc(N)cc1)C1CCN(C2CCCCC2)C1 (single isomer, unassigned; (+)) [(+)-isomer, (+)-4-Amino-N-(1-cyclohexyl-3-pyrrolidinyl)-N-methylbenzamide]
cataleptic effect, Summary (IP): NSE to 100 | cataleptic effect, Summary (PO): NSE to 200

CN(C(=O)c1ccc(N)cc1)C1CCN(C2CCCCC2)C1 (racemic) [± racemate, 4-Amino-N-(1-cyclohexyl-3-pyrrolidinyl)-N-methylbenzamide]
cataleptic effect, Summary (IP): NSE to 100 | cataleptic effect, Summary (PO): NSE to 200

CN(C(=O)c1ccc(N)cc1)C1CCN(C2CCCCC2)C1 (single isomer, unassigned; (-)) [(-)-isomer, (-)-4-amino-N-(1-cyclohexyl-3-pyrrolidinyl)-N-methylbenzamide]
cataleptic effect, Ed50 (estimated) (PO): ~80 mg/kg
